Values of other authors as cited in patent US7881871B2, “Method for designing surfaces” (Bio-Layer Pty Limited, priority 2003, dated 2011).
Like-named read-outs stand apart in the source and are kept apart here.

Columns and labels:
[1] = tested on: monoclonal antibodies (IgG subclasses)

Row | Substance | affinity for antibodies (antibodies (Fc fragment); horse, cow and mouse antibodies) | affinity for antibodies (antibodies (Fc fragment); human, pig, rabbit and guinea pig antibodies) | affinity for antibodies (antibodies (Fc fragment); sheep, goat, chicken, hamster and rat antibodies) | affinity for monoclonal antibodies ([1]; human IgG1, IgG2, IgG3, mouse IgG2a and IgG2b) | affinity for monoclonal antibodies ([1]; human IgG1, rat IgG1, IgG2a and IgG2b) | affinity for monoclonal antibodies ([1]; mouse IgG1 and IgG3, rat IgG2c) | affinity for antibodies (antibodies (Fc fragment); chicken antibodies) | affinity for antibodies (antibodies (Fc fragment); human, horse, cow, pig and rabbit antibodies) | affinity for antibodies (antibodies (Fc fragment); sheep, goat, hamster, guinea pig, rat and mouse antibodies) | affinity for monoclonal antibodies ([1]; human IgG1, IgG2, IgG3 and IgG4, mouse IgG1, IgG2a, IgG2b and IgG3, rat IgG2a) | affinity for monoclonal antibodies ([1]; rat IgG1, IgG2b and IgG2c)
1 | Protein A: 42,000 dalton cell-wall-associated protein of S. Aureus with IgG binding activity | moderate affinity | high affinity | low or no affinity | high affinity | no affinity | moderate or low affinity | – | – | – | – | –
2 | Protein G: 30,000 to 35,000 dalton protein isolated from the cell wall of beta-hemolytic Streptococci | – | – | – | – | – | – | low affinity | high affinity | moderate affinity | high affinity | moderate or low affinity
